Data as given in US12583884B2, “3beta-(benzyloxy)-17alpha-methyl-pregn-5-en-20-one for use in the treatment of cognitive disorders” (AELIS FARMA, priority 2018, dated 2026).
Like-named read-outs stand apart in the source and are kept apart here.

How the values were obtained:
[1] = biological target: T1, Adenosine A2A (Homo sapiens, UniProt P29274); assay: CEREP binding profile: A2A
T1 construct: CEREP
Text: (§1) The CEREP High-throughput profile consists of a broad collection of 80 transmembrane and soluble receptors, ion channels and G-Protein coupled receptors.

[2] = system: Adrenergic alpha1; assay: CEREP binding profile: alpha1; conditions: 10 μM
Text: as §1

[3] = system: Adrenergic alpha2; assay: CEREP binding profile: alpha2; conditions: 10 μM
Text: as §1

[4] = biological target: T2, Adrenergic beta1 (Homo sapiens, UniProt P08588); assay: CEREP binding profile: beta1
T2 construct: CEREP
Text: as §1

[5] = biological target: T3, Angiotensin-II AT1 (Homo sapiens, UniProt P30556); assay: CEREP binding profile: AT1
T3 construct: CEREP
Text: as §1

[6] = system: Bombesin BB; assay: CEREP binding profile: BB; conditions: 10 μM
Text: as §1

[7] = biological target: T4, Calcitonin gene-related CGRP (Homo sapiens, UniProt O60894+Q16602); assay: CEREP binding profile: CGRP
T4 construct: CEREP
Text: as §1

[8] = biological target: T5, Cannabinoid CB1 (Homo sapiens, UniProt P21554); assay: CEREP binding profile: CB1
T5 construct: CEREP
Text: as §1

[9] = biological target: T6, Cannabinoid CB2 (Homo sapiens, UniProt P34972); assay: Binding: CB2
T6 construct: CEREP
Text: as §1

[10] = biological target: T7, Chemokines CXCR2 (Homo sapiens, UniProt P25025); assay: CEREP binding profile: CXCR2
T7 construct: CEREP
Text: as §1

[11] = biological target: T8, Dopamine D3 (Homo sapiens, UniProt P35462); assay: CEREP binding profile: D3
T8 construct: CEREP
Text: as §1

[12] = biological target: T9, Dopamine D4.4 (Homo sapiens, UniProt P21917); assay: CEREP binding profile: D4.4
T9 construct: CEREP
Text: as §1

[13] = biological target: T10, Endothelin ETA (Homo sapiens, UniProt P25101); assay: CEREP binding profile: ETA
T10 construct: CEREP
Text: as §1

[14] = biological target: T11, Endothelin ETB (Homo sapiens, UniProt P24530); assay: CEREP binding profile: ETB
T11 construct: CEREP
Text: as §1

[15] = biological target: Galanin GAL2 (Homo sapiens, UniProt O43603); assay: CEREP binding profile: GAL2
Text: as §1

[16] = biological target: Histamine H1 (Homo sapiens, UniProt P35367); assay: CEREP binding profile: H1
Text: as §1

[17] = biological target: Histamine H2 (Homo sapiens, UniProt P25021); assay: CEREP binding profile: H2
Text: as §1

[18] = biological target: Muscarinic M1 (Homo sapiens, UniProt P11229); assay: CEREP binding profile: M1
Text: as §1

[19] = biological target: Muscarinic M2 (Homo sapiens, UniProt P08172); assay: CEREP binding profile: M2
Text: as §1

[20] = biological target: Muscarinic M4 (Homo sapiens, UniProt P08173); assay: CEREP binding profile: M4
Text: as §1

[21] = biological target: Muscarinic M5 (Homo sapiens, UniProt P08912); assay: CEREP binding profile: M5
Text: as §1

[22] = biological target: Neurokinin NK1 (Homo sapiens, UniProt P25103); assay: CEREP binding profile: NK1
Text: as §1

[23] = biological target: Neurokinin NK2 (Homo sapiens, UniProt P21452); assay: CEREP binding profile: NK2
Text: as §1

[24] = biological target: Neuropetide Y N1 (Homo sapiens, UniProt P25929); assay: CEREP binding profile: N1
Text: as §1

[25] = biological target: Neuropetide Y Y2 (Homo sapiens, UniProt P49146); assay: CEREP binding profile: Y2
Text: as §1

[26] = biological target: Opioid and opioid-like delta2 (DOP) (Homo sapiens, UniProt P41143); assay: CEREP binding profile: delta2; conditions: 10 μM
Text: as §1

[27] = biological target: Opioid and opioid-like kappa (KOP) (Rattus norvegicus, UniProt P34975); assay: CEREP binding profile: kappa; conditions: 10 μM
Text: as §1

[28] = system: Purinergic P2Y; assay: CEREP binding profile: P2Y; conditions: 10 μM
Text: as §1

[29] = biological target: T12, Vasopressin V1a (Homo sapiens, UniProt P37288); assay: CEREP binding profile: V1a
T12 construct: CEREP (contract panel)
Text: as §1

[30] = biological target: T13, Serotonin 5-HT1B (Rattus norvegicus, UniProt P28564); assay: CEREP binding profile: 5-HT1B
T13 construct: CEREP (contract panel)
Text: as §1

[31] = biological target: T14, Serotonin 5-HT2B (Homo sapiens, UniProt P41595); assay: CEREP binding profile: 5-HT2B
T14 construct: CEREP (contract panel)
Text: as §1

[32] = biological target: T15, Serotonin 5-HT2C (Homo sapiens, UniProt P28335); assay: CEREP binding profile: 5-HT2C
T15 construct: CEREP (contract panel)
Text: as §1

[33] = biological target: T16, Serotonin 5-HT6 (Homo sapiens, UniProt P50406); assay: CEREP binding profile: 5-HT6
T16 construct: CEREP (contract panel)
Text: as §1

[34] = system: K+ channels KV; assay: CEREP binding profile: KV; conditions: 10 μM
Text: as §1

[35] = system: K+ channels SKCa; assay: CEREP binding profile: SKCa; conditions: 10 μM
Text: as §1

[36] = system: Na+ channels Na+-site 2; assay: CEREP binding profile: Na+-site 2; conditions: 10 μM
Text: as §1

[37] = biological target: T17, Transporters Dopamine (Homo sapiens, UniProt Q01959); assay: CEREP binding profile: dopamine transporter
T17 construct: CEREP (contract panel)
Text: as §1

[38] = biological target: T18, Benzodiazepine BZD (periph) (Rattus norvegicus, UniProt P16257); assay: CEREP binding profile: BZD (periph)
T18 construct: CEREP (contract panel)
Text: as §1

[39] = system: Cytokines TNF-alpha; assay: CEREP binding profile: TNF-alpha; conditions: 10 μM
Text: as §1

[40] = system: GABA; assay: CEREP binding profile: GABA; conditions: 10 μM
Text: as §1

[41] = system: GABA BZD (central); assay: CEREP binding profile: BZD (central); conditions: 10 μM
Text: as §1

[42] = biological target: T19, Serotonin 5-HT3 (Homo sapiens, UniProt P46098); assay: CEREP binding profile: 5-HT3
T19 construct: CEREP
Text: as §1

[43] = system: Sigma sigma; assay: CEREP binding profile: sigma; conditions: 10 μM
Text: as §1

T17 sequence (Q01959 whole entry): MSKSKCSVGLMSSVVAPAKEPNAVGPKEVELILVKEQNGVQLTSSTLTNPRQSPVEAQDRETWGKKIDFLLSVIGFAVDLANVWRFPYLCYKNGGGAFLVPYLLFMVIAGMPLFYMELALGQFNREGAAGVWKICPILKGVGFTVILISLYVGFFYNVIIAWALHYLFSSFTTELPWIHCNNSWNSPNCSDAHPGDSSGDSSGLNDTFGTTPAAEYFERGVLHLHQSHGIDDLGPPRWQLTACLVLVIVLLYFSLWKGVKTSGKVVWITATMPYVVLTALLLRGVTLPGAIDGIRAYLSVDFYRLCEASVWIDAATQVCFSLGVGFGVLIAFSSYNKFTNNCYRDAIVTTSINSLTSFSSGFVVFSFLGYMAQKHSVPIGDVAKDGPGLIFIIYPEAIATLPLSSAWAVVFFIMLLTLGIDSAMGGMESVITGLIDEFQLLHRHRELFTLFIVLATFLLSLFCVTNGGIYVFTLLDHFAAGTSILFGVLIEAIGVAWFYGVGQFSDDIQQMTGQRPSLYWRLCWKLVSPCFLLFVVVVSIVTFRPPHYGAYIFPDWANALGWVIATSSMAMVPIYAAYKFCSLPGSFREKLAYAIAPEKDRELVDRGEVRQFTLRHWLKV
T3 sequence (P30556 whole entry): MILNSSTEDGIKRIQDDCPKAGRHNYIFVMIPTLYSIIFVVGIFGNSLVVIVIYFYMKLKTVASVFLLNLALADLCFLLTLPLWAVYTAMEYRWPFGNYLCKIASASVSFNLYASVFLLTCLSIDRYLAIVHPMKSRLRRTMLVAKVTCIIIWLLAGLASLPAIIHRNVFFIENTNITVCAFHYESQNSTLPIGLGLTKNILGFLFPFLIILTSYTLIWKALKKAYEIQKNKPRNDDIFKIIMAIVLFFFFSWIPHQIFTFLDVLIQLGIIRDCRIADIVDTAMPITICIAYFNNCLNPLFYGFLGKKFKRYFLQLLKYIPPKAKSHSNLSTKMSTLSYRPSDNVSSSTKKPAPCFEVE
T4 sequence (Q16602 23-461): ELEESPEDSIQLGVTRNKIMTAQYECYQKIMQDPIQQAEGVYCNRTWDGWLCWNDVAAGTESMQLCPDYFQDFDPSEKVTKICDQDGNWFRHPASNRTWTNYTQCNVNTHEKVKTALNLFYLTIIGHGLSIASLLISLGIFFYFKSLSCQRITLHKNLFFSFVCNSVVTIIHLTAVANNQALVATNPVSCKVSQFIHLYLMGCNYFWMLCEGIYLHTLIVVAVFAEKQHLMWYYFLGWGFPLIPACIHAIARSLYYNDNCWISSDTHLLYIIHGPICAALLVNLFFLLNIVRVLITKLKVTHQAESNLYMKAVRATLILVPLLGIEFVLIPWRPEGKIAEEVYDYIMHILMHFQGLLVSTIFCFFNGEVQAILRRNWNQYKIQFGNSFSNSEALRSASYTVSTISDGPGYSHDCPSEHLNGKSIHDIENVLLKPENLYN
T4 sequence (O60894 27-148 partner): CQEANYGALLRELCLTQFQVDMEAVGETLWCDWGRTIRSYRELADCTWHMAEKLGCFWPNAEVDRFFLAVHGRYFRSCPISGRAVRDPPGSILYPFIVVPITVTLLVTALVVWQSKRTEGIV
Chain of Neurokinin NK2 (P21452 whole entry): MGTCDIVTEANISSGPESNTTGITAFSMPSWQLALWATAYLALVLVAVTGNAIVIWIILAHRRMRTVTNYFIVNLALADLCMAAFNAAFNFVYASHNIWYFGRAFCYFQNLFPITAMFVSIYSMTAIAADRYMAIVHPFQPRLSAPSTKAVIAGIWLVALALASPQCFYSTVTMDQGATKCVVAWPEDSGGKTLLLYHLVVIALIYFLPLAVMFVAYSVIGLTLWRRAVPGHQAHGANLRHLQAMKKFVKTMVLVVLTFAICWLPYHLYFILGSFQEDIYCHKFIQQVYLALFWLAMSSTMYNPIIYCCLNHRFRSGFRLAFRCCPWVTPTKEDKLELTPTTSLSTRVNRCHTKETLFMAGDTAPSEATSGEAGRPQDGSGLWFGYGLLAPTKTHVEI
T11 sequence (P24530 27-442): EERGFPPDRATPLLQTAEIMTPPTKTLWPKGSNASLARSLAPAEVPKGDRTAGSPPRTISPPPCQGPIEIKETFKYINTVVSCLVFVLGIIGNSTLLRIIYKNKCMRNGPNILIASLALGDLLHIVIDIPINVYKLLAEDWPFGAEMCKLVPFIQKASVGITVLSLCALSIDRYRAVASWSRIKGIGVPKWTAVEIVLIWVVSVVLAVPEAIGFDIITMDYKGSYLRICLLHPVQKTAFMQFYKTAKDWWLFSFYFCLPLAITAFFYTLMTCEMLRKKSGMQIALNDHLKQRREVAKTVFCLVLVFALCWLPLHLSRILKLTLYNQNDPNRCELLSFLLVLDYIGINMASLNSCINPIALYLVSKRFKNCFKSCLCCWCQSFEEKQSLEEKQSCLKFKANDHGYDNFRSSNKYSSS
T13 sequence (P28564 whole entry): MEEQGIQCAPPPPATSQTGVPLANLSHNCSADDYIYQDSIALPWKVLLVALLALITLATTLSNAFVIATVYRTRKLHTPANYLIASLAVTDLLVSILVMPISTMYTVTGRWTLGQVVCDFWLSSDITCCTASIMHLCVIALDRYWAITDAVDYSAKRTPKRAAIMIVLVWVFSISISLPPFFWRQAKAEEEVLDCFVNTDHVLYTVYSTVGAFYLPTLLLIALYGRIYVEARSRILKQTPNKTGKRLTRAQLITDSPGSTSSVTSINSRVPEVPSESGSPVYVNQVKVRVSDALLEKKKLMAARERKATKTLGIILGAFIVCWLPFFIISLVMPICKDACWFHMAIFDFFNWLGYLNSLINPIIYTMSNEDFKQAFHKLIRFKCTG
T2 sequence (P08588 whole entry): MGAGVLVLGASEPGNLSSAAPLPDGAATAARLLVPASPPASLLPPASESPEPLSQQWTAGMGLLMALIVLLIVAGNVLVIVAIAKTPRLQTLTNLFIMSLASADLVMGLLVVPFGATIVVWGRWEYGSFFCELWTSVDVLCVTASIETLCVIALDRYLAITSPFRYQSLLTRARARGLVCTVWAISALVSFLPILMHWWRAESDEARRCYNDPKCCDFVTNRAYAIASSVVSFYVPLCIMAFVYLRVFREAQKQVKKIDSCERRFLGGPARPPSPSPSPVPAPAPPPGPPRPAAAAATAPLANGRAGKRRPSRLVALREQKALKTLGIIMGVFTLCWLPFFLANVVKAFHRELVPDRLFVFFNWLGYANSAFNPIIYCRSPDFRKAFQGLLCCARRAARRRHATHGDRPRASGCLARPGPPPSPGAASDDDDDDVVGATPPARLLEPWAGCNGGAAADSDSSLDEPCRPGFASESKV
Chain of Neuropetide Y N1 (P25929 whole entry): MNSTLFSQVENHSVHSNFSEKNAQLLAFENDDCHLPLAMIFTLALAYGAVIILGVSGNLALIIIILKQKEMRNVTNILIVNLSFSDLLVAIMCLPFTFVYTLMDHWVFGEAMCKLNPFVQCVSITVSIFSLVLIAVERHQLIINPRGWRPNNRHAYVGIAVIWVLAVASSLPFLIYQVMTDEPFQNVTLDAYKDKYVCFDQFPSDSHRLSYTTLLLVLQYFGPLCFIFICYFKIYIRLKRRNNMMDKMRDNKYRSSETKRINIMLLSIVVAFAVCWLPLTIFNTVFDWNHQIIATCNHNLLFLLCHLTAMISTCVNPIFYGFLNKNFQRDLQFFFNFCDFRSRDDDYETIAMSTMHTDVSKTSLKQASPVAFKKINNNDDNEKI
T16 sequence (P50406 whole entry): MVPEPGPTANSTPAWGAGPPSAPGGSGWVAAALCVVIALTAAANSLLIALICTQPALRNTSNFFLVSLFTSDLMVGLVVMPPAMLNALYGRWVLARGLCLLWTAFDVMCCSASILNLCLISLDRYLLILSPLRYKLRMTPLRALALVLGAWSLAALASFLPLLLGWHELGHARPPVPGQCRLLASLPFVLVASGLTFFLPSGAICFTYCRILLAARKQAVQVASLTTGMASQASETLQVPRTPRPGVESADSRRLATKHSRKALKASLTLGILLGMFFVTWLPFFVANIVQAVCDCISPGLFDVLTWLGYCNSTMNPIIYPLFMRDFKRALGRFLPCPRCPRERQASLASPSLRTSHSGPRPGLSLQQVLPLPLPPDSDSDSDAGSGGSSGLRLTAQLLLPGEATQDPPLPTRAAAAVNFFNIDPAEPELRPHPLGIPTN
T7 sequence (P25025 whole entry): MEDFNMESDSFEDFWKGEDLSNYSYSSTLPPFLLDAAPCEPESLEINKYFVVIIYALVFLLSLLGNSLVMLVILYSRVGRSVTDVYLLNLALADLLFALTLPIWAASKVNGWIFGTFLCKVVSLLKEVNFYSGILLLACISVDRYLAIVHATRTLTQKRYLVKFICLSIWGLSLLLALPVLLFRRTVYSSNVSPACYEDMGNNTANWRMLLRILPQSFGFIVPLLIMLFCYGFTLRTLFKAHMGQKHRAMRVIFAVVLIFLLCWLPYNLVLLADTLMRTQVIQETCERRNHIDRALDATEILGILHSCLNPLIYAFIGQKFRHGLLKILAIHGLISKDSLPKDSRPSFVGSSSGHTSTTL
Chain of Muscarinic M1 (P11229 whole entry): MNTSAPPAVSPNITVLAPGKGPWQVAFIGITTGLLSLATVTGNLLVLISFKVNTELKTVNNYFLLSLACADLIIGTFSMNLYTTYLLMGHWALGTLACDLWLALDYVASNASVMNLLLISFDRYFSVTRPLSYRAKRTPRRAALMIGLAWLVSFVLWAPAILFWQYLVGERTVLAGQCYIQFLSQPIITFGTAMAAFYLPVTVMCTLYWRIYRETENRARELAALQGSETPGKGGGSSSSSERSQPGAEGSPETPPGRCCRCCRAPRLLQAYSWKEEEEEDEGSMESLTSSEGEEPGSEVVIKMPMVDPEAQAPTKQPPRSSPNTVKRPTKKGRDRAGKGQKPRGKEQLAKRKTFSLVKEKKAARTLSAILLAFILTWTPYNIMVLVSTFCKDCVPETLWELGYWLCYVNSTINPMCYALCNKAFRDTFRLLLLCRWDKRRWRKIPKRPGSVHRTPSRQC

SMILES: CC(=O)[C@H]1CC[C@H]2[C@@H]3CC=C4C[C@@H](O)CC[C@]4(C)[C@H]3CC[C@]12C [pregnenolone, reference compound]
- inhibition at 10 µM [1]: -1%
- % Inhibition [2]: 1%
- % Inhibition [3]: −2%
- inhibition at 10 µM [4]: 4%
- inhibition at 10 µM [5]: -28%
- % Inhibition [6]: −18%
- inhibition at 10 µM [7]: -12%
- inhibition at 10 µM [8]: 10%
- inhibition at 10 µM ([9]; CB2, 10 μM, read-out: % Inhibition): -19%
- inhibition at 10 µM [10]: -10%
- inhibition at 10 µM [11]: 11%
- inhibition at 10 µM [12]: 20%
- inhibition at 10 µM [13]: -3%
- inhibition at 10 µM [14]: 4%
- inhibition at 10 µM [15]: 1%
- inhibition at 10 µM [16]: 0%
- inhibition at 10 µM [17]: 9%
- inhibition at 10 µM ([18]; M1, 10 μM, read-out: % Inhibition): -14%
- inhibition at 10 µM ([19]; M2, 10 μM, read-out: % Inhibition): -4%
- inhibition at 10 µM ([20]; M4, 10 μM, read-out: % Inhibition): -4%
- inhibition at 10 µM ([21]; M5, 10 μM, read-out: % Inhibition): 8%
- inhibition at 10 µM [22]: 17%
- inhibition at 10 µM [23]: -1%
- inhibition at 10 µM [24]: -11%
- inhibition at 10 µM [25]: -9%
- % Inhibition [26]: 9%
- % Inhibition [27]: 38%
- % Inhibition [28]: −3%
- inhibition at 10 µM [29]: 10%
- inhibition at 10 µM [30]: -28%
- inhibition at 10 µM [31]: -38%
- inhibition at 10 µM [32]: -9%
- inhibition at 10 µM [33]: 5%
- % Inhibition [34]: −23%
- % Inhibition [35]: −8%
- % Inhibition [36]: 23%
- inhibition at 10 µM ([37]; dopamine transporter, 10 μM, read-out: % Inhibition): -12%
- Inhibition % ([38]; BZD (periph), 10 μM): 42%
- inhibition at 10 µM ([38]; BZD (periph), 10 μM, read-out: Inhibition %): > 40%
- Inhibition % [39]: 4%
- Inhibition % [40]: 10%
- Inhibition % [41]: > 40%
- Inhibition % ([41]; listed as PREG): −43%
- inhibition at 10 µM [42]: 6%
- Inhibition % [43]: 26%

SMILES: CC(=O)[C@@]1(C)CC[C@H]2[C@@H]3CC=C4C[C@@H](OCc5ccccc5)CC[C@]4(C)[C@H]3CC[C@@]21C [3Bn17MeP, 3β-benzyloxy, 17α-methyl-pregn-5-en-20-one]
- inhibition at 10 µM [1]: -6%
- % Inhibition [2]: 5%
- % Inhibition [3]: −1%
- % Inhibition ([4]; 10 μM): 7%
- inhibition at 10 µM [5]: -13%
- % Inhibition [6]: −6%
- inhibition at 10 µM [7]: -15%
- % Inhibition ([8]; 10 μM): 2%
- inhibition at 10 µM [9]: 2%
- inhibition at 10 µM [10]: 0%
- % Inhibition ([11]; 10 μM): −2%
- % Inhibition ([12]; 10 μM): −10%
- inhibition at 10 µM [13]: 1%
- inhibition at 10 µM [14]: -13%
- inhibition at 10 µM [15]: -11%
- inhibition at 10 µM [16]: 3%
- inhibition at 10 µM [17]: 12%
- inhibition at 10 µM [18]: -25%
- inhibition at 10 µM [19]: -17%
- inhibition at 10 µM [20]: 2%
- inhibition at 10 µM [21]: 0%
- inhibition at 10 µM [22]: 8%
- inhibition at 10 µM [23]: -12%
- inhibition at 10 µM [24]: -32%
- inhibition at 10 µM [25]: -6%
- % Inhibition [26]: −3%
- % Inhibition [27]: −17%
- % Inhibition [28]: −2%
- inhibition at 10 µM [29]: 0%
- % Inhibition ([30]; 10 μM): −15%
- % Inhibition ([31]; 10 μM): 16%
- % Inhibition ([32]; 10 μM): 10%
- % Inhibition ([33]; 10 μM): −1%
- % Inhibition [34]: −15%
- % Inhibition [35]: −3%
- % Inhibition [36]: −12%
- inhibition at 10 µM [37]: -23%
- inhibition at 10 µM [38]: 1%
- Inhibition % [39]: 4%
- Inhibition % [40]: 10%
- Inhibition % [41]: −16%
- Inhibition % ([42]; 10 μM): 4%
- Inhibition % [43]: 9%
